Experimental data reported in ChEMBL document CHEMBL1201862, “PubChem BioAssay data set” (2004).
Calls of active or inactive are those of the source.

Key:
[1] = system: HEK293; assay: EBV LMP1 TES2 canonical NF-kB signalling blockers – cell-based, HEK293, luciferase, cherry-pick, dose response (AID 588343); assay type: functional; conditions: Homo sapiens
[2] = blockers of bursicon-stimulated LGR2 cAMP reporter – cell-based, HEK293, CRE-luciferase reporter, cherry pick, set 2, dose response (AID 743343); assay type: functional;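 further: transfected cells were stimulated with diluted bursicon conditioned medium after compound addition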
[3] = blockade of melanocortin 4 receptor signaling – cell-based, plate reader, cherry pick, counter-screen for LGR2 antagonist project, dose response (AID 743444); assay type: functional;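 further: transfected HEK 293 cells stimulated with alpha-MSH peptide; potency of inhibitors of the alpha-MSH evoked signal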
[4] = biological target: T1, Carboxy-terminal domain RNA polymerase II polypeptide A small phosphatase 1 (Homo sapiens, UniProt Q9GZU7); assay: CTDSP1 inhibitors, concentration-response, biochemical, absorbance readout, ultra-high-throughput screen actives (AID 540297); assay type: functional
T1 sequence (Q9GZU7 whole entry): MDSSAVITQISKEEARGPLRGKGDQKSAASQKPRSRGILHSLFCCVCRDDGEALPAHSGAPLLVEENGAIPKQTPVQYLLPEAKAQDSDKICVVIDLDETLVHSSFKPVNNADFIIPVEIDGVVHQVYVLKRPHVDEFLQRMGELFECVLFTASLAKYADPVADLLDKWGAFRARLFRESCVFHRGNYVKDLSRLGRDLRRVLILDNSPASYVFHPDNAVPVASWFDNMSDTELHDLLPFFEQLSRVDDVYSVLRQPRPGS

[5] = NIH-3T3 fibroblast cytotoxicity, dose response, cytotoxicity control, cell-based, fluorescence, Alamar Blue, secondary assay (AID 2327); assay type: functional;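 further: NIH-3T3 mouse fibroblasts cultured with fluconazole at 8 µg/mL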
[6] = fluconazole-exposed Candida albicans growth modulators – fluorescence, retest, confirmation (AID 2467); assay type: functional, cell-based
[7] = biological target: Heat shock protein HSP 90-alpha (Homo sapiens, UniProt P07900); assay type: functional, organism-based
[8] = system: Vero; assay: cells; assay type: functional, cell-based; conditions: Chlorocebus sabaeus
[9] = system: INS1; assay: INS-1E survival protection against cytokine death – cell-based, luminescence, retest, dose response (AID 449756); assay type: functional; conditions: Rattus norvegicus;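 further: cell death triggered by IL-1 beta plus TNF-alpha plus IFN-gamma mixture; protective hits raise ATP signal compared with cytokine alone wells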
[10] = system: Vero; assay: cells; assay type: functional; conditions: Chlorocebus sabaeus
[11] = Luminescence Cell-Based Dose Retest to Confirm Inhibitors of Cancer Stem Cells. [Related pubchem assays (depositor defined):AID2717, AID2721]; assay type: functional; conditions: Homo sapiens
[12] = reduction of Shn3 3'UTR-driven luciferase in osteoblasts – cell-based, Clone20 osteoblasts, firefly luciferase, cherry-picked, dose response (AID 624132); assay type: functional;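 further: firefly luciferase luminescence from reporter carrying the Shn3 3'UTR in osteoblasts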
[13] = loss of viability in HepG2 cells – cell-based, CellTiter-Glo, cherry-picked, cytotoxicity control for Shn3 inhibitor project, dose response (AID 624134); assay type: functional
[14] = biological target: Paired box protein Pax-8 (Homo sapiens, UniProt Q06710); assay: PAX8 transcriptional activity inhibition in RMG-I – RMG-I cells, luciferase, cherry-pick, dose response (AID 687027); assay type: functional, cell-based;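 further: luciferase reporter driven by Pax8 target thyroperoxidase promoter measured by SteadyGlo luminescence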
[15] = general cell-killing toxicity readout – plate reader, dry powder samples, cytotoxicity control for PAX8 inhibitor project, dose response (AID 743021); assay type: functional, cell-based
[16] = system: Vero; assay: viability of Vero cells under compound – cytotoxicity control for flavivirus capping enzyme inhibitors (AID 588742); assay type: functional; conditions: Chlorocebus sabaeus
[17] = biological target: Genome polyprotein (dengue virus type 2, UniProt P29990); assay: flavivirus cap methylation enzyme inhibition – biochemical, confirmation dose response, primary screen (AID 588689); assay type: functional
[18] = biological target: Cytochrome P450 2D6 (Homo sapiens, UniProt P10635);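 further: CYP2D6 member of a cytochrome P450 panel assay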
[19] = biological target: Cytochrome P450 2C9 (Homo sapiens, UniProt P11712)
[20] = blockers of HIV-1 ZM109 envelope-driven cell-cell fusion – HeLa effector, CEM target cells, luciferase, cherry-pick, dose response (AID 652058); assay type: functional, cell-based;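 further: luciferase signal from HIV-1 Env mediated cell-cell fusion of effector and target cells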
[21] = HIV-1 AD8 envelope cell-cell fusion blockers – cherry-pick, dose response (AID 652062); assay type: functional, cell-based;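 further: luciferase signal from cell-cell fusion driven by HIV-1 clade B AD8 Env; potency is for inhibitors of fusion seen as a drop in luminescence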
[22] = biological target: T2, Cytochrome P450 1A2 (Homo sapiens, UniProt P05177);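 further: PubChem cytochrome P450 panel assay, CYP1A2 panel member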
T2 sequence (P05177 whole entry): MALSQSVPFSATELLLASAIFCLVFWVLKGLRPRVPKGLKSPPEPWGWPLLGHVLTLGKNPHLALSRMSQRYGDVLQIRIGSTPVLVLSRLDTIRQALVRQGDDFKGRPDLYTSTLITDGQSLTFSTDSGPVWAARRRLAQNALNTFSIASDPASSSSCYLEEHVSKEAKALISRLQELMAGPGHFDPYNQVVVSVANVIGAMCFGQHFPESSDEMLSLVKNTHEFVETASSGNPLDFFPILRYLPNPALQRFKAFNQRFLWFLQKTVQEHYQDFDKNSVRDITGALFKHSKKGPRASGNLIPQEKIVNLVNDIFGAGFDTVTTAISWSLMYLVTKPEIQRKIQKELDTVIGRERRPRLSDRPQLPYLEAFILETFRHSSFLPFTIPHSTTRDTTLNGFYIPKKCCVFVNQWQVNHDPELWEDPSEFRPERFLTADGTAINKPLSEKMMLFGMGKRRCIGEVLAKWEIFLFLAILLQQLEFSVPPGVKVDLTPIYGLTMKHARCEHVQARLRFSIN

[23] = blockers of HIV-1 envelope-mediated cell-cell fusion – cherry-pick, dose response (AID 652057); assay type: functional, cell-based
[24] = biological target: Nonstructural protein 1 (Influenza A virus, UniProt Q194T2); assay type: functional, Influenza A virus (A/California/07/2009(H1N1))
[25] = biological target: T3, Replicative DNA helicase DnaB (Mycobacterium tuberculosis, UniProt P9WMR3); assay: DnaB intein splicing inhibitors, dose response, biochemical, cell-free fluorescence (AID 449749); assay type: functional
T3 sequence (P9WMR3 whole entry): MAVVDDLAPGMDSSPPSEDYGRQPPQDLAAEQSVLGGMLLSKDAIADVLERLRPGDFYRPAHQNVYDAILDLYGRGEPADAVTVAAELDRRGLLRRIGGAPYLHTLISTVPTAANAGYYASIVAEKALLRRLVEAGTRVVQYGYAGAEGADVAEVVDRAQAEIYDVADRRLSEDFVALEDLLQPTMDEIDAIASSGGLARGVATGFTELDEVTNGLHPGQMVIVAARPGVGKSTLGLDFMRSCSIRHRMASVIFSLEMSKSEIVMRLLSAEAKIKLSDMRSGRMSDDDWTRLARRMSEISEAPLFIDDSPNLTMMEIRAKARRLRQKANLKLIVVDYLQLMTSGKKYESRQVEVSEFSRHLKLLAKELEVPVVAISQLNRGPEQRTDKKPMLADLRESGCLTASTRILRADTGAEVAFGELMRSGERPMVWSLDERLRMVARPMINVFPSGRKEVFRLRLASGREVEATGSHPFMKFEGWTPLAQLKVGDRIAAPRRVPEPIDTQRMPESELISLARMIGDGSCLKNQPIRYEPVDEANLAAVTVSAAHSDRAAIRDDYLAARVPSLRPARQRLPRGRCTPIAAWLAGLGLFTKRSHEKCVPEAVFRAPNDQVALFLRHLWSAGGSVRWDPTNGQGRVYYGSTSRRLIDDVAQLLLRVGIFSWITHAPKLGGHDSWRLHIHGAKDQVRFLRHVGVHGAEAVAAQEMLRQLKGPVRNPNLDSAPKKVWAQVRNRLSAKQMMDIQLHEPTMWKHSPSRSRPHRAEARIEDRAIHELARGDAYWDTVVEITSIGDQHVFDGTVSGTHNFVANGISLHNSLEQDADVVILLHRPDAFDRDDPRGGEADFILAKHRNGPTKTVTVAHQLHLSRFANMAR

[26] = biological target: T4, Apoptotic protease-activating factor 1 (Homo sapiens, UniProt O14727); assay type: functional
T4 sequence (O14727 whole entry): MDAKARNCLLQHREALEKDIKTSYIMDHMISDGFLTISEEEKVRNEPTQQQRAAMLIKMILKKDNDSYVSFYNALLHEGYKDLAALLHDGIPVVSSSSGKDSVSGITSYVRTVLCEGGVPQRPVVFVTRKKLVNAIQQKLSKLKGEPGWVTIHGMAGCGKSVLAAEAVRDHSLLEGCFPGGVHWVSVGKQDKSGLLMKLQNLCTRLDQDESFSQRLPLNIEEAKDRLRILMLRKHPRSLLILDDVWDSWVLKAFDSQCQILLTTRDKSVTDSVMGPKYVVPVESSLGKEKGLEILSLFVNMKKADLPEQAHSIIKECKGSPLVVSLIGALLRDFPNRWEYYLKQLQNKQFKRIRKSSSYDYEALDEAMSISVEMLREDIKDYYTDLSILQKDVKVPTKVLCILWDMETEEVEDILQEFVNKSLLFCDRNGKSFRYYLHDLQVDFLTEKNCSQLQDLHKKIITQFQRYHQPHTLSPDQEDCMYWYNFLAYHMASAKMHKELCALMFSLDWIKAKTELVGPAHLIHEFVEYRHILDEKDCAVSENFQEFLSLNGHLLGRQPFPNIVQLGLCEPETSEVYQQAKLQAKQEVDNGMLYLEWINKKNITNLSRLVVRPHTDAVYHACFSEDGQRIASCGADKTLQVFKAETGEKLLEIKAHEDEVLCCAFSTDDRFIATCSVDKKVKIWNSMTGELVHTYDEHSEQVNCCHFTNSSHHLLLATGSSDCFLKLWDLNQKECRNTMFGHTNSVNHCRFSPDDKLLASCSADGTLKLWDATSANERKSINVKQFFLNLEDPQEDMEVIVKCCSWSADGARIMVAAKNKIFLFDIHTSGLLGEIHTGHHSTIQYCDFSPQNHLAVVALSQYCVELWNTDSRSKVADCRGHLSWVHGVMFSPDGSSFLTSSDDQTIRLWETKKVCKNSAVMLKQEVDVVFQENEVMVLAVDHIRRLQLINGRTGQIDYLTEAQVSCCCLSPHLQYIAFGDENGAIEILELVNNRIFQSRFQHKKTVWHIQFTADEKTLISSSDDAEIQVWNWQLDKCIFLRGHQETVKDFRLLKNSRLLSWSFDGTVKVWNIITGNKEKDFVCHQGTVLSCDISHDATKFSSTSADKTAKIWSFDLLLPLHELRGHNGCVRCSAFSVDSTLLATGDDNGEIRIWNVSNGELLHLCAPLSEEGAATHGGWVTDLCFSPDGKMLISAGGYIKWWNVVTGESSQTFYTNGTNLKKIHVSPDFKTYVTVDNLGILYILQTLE

[27] = biological target: T5, Protein RecA (Mycobacterium tuberculosis, UniProt P9WHJ3); assay: Fluorescence Cell-Free Homogeneous Dose Retest to Identify Inhibitors of RecA-Intein Splicing Activity. [Related pubchem assays (depositor defined):AID2097, AID2223, AID489010, AID492950]; assay type: functional
T5 sequence (P9WHJ3 whole entry): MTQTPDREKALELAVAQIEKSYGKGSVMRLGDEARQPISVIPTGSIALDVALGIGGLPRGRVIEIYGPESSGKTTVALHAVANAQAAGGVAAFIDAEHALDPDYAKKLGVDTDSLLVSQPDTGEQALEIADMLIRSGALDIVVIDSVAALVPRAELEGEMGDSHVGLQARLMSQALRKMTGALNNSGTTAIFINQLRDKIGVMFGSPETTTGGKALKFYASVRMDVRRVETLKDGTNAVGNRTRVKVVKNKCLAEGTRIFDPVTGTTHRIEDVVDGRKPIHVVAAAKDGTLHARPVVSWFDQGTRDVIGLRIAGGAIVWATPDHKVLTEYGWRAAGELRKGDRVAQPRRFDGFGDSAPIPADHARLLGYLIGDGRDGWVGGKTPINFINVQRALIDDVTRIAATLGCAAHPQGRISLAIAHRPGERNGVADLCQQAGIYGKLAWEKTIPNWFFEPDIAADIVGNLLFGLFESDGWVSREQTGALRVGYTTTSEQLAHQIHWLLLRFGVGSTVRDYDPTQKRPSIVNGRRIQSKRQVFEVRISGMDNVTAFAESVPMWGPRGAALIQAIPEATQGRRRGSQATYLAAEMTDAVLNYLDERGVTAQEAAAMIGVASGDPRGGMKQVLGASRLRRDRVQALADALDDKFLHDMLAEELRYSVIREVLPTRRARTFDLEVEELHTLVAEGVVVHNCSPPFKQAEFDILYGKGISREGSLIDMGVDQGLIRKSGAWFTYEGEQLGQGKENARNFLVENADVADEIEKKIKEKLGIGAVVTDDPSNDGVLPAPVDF

Genome polyprotein, sequence (P29990 2492-3391 limits assumed): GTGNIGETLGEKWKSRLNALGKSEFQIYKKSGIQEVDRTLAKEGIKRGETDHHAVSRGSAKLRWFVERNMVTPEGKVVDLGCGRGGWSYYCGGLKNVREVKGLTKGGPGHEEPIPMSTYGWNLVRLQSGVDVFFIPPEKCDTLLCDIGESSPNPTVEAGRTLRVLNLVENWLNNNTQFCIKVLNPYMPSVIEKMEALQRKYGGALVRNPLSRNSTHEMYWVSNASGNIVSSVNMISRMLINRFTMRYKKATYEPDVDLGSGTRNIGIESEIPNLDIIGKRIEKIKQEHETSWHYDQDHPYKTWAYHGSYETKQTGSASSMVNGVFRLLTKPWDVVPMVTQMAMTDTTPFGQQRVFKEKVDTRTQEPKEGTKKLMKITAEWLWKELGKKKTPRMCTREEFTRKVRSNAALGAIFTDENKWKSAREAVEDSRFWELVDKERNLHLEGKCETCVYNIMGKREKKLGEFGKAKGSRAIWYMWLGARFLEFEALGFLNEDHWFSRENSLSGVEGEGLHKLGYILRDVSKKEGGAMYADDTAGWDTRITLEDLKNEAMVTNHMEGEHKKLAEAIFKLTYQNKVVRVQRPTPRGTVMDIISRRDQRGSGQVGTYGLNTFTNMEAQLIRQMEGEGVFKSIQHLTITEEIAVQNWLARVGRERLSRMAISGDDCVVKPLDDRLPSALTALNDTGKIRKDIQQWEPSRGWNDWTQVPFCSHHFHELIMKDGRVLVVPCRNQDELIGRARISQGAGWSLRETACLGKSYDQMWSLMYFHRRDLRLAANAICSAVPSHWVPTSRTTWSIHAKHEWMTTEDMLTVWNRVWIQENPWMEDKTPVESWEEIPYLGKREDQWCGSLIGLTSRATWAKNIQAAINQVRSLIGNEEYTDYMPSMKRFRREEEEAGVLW
Nonstructural protein 1, sequence (Q194T2 whole entry): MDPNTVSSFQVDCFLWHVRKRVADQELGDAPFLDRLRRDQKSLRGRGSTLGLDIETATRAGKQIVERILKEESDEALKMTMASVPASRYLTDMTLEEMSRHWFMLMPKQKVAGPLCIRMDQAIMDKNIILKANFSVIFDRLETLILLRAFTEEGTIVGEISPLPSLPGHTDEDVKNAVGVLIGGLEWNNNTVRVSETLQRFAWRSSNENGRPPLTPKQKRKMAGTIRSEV
Paired box protein Pax-8, sequence (Q06710 whole entry): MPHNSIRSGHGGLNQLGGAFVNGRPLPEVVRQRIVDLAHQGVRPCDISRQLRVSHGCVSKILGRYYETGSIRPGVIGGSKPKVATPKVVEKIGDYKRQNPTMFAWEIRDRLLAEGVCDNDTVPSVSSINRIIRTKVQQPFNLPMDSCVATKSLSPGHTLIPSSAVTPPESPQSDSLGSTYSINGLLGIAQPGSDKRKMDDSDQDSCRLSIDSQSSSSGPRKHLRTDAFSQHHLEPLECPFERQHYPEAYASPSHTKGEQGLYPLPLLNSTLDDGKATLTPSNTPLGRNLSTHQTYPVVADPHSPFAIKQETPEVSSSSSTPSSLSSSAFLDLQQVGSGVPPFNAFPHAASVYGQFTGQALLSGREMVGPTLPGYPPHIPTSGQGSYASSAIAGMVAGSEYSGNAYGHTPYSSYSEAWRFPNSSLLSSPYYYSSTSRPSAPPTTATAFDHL
Cytochrome P450 2D6, sequence (P10635 whole entry): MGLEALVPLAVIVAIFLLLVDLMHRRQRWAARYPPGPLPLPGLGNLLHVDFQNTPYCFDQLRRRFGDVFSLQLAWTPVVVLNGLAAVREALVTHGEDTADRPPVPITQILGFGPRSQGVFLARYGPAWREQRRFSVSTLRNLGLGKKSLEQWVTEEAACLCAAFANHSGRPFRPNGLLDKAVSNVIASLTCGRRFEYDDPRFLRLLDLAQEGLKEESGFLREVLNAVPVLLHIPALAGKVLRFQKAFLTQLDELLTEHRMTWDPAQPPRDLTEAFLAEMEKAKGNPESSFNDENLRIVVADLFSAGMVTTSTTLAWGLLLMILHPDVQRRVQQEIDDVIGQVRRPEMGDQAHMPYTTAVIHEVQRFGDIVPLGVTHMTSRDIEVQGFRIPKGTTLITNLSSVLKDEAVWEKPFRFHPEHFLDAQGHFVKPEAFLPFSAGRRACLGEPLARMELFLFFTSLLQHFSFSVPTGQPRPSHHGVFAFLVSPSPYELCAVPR
Cytochrome P450 2C9, sequence (P11712 whole entry, the tested form may be a part): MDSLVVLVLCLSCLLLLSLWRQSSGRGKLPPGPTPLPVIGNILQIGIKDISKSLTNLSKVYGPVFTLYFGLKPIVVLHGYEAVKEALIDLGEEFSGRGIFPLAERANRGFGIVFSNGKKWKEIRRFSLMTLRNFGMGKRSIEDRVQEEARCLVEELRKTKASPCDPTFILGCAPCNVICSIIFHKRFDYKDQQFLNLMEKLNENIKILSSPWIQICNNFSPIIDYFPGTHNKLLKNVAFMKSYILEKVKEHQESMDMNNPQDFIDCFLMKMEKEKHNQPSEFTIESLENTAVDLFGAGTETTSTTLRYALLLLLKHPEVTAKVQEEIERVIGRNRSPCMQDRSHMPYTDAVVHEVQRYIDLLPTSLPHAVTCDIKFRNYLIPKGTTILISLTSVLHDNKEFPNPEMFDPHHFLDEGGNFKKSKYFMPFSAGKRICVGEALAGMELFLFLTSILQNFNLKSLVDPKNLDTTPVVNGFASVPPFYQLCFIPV

## Cc1c(NC(=O)c2cccc(NC(=O)COc3ccccc3C#N)c2)c(=O)n(-c2ccccc2)n1C
[1]
  AC50: 5.77 µM (active)
[2]
  AC50: 2.66 µM (active)
[3]
  AC50: 4.53 µM (active)

## c1ccc2c(c1)nc(N1CCCCCC1)c1ccccc12
[4]
  IC50: 17.4 µM (active)

## CCCCOc1ccc(C(=O)NNC(=S)NC(=O)CC)cc1
[5]
  EC50: > 160 µM (inactive)
[6]
  EC50: 0.621 µM (active)
[7]
  AC50: 4.33 µM (active)
[8]
  IC50: 5.78 µM (active)
[9]
  AC50: 3.17 µM (active)
[10]
  CC50: 13.2 µM (active)

## O=c1cc(-c2ccc(O)cc2)oc2ccc3ccccc3c12
[11]
  AC50: 2.15 µM (active)
[12]
  AC50: 5.41 µM (active)
[13]
  AC50: 41.6 µM (active)
[14]
  AC50: 8.88 µM (active)
[15]
  AC50: 31.3 µM (active)

## c1coc(-c2nc3nc4ccccc4n3nc2-c2ccco2)c1
[16]
  CC50: > 40 µM (active)
[17]
  IC50: 99.3 µM (active)

## CN(C)c1ccc(-c2cc(Nc3ccc(F)cc3)ncn2)cc1
[18]
  AC50: 39.8 µM (inconclusive)
[19]
  AC50: inconclusive

## CCN(C1CCCCC1)S(=O)(=O)c1ccc(S(=O)(=O)NCc2ccncc2)cc1
[9]
  AC50: 5.12 µM (active)
[20]
  AC50: 3.52 µM (active)
[21]
  AC50: 7.99 µM (active)
[22]
  AC50: 15.8 µM (inconclusive)

## Cc1cccc(C(=O)Nc2ccc(C(=O)N/N=C/c3ccco3)cc2)c1
[4]
  IC50: 4.79 µM (active)

## COc1ccc(S(=O)(=O)N(C)C[C@@H]2Oc3ccc(NC(=O)C4CCCCC4)cc3CC(=O)N([C@H](C)CO)C[C@@H]2C)cc1
[23]
  AC50: 0.574 µM (active)
[20]
  AC50: 2.96 µM (active)
[21]
  AC50: 4.51 µM (active)

## Cc1cc(C(=O)N/N=C/c2c(C)nn(-c3ccccc3)c2O)[nH]n1
[24]
  IC50: 11.8 µM (active)
[25]
  AC50: 226 µM (active)
[26]
  IC50: 6.97 µM (active)
[27]
  EC50: 27 µM (active)

## COC(COC(N)=O)C1=C(N2CC2)C(=O)C(C)=C(N2CC2)C1=O (stereo not drawn) [CARBOQUONE]
[8]
  IC50: > 25 µM (active)
[10]
  CC50: 0.3 µM (active)
